These results are taken from ChEMBL document CHEMBL1159238, “Brevitaxin, a new diterpenolignan from the bark of Taxus brevifolia” (1995).

Each structure is given as a SMILES string. pEC50: −log10 of the molar value. The source made the active and inactive calls. The calls are words filed in the database; no cut-off is given here.

Assay [1] concerns NCI60. As to the kind of experiment: Cytotoxicity against human NCI60 cells. It is filed as functional, cell-based.
In assay [2] the test system is DU-145. In words: Cytotoxicity against human DU145 cells. It is filed as functional. The conditions noted are these: read-out: ED50 (the source's name).

Take `COc1cc([C@@H]2Oc3c(C(C)C)cc4c(=O)cc5c(cc4c3O[C@H]2CO)C=CC(=O)C5(C)C)ccc1O` [BREVITAXIN]: the result in assay [1] was Active. Besides, the pEC50 in assay [2] was 5.17.
